Tested on: 596521-263-R-J1-PDC complex spheroids, viability % of control
Assay: Anticancer human tumor 596521-263-R-J1-PDC patient-derived soft tissue sarcoma cell line growth inhibition [GQUAD]
Settings: for IC50: curve of first compound; for viability, T/C: stronger effect = lower value
From the text: DNA G-quadruplex Stabilizer Agents in Combinations in Complex Spheroids
A high-throughput screen of multi-cell type tumor spheroids was designed to identify active combinations of DNA G-quadruplex stabilizer agents and targeted small molecules. Complex spheroids include a stromal component modeled by human endothelial cells (HUVEC) and fibroblasts modeled by human mesenchymal stem cells (MSCs). The concentration ranges selected for each drug and investigational agent were based upon clinically achievable concentrations if the clinical Cmax of the agent was known.
Compounds. The drugs and investigational agents: pidnarulex (CX-5461; NSC782164), APTO-253 (NSC789042), BRACO-19 (NSC847499), peposertib (NSC802822), ceralasertib (NSC780249), elimusertib (NSC800525), camonsertib (NSC841442), AZD-1390 (NSC803789), olaparib (NSC753686), talazoparib (NSC767125), ART-558 (NSC835418), sotorasib (NSC818433), MRTX-1133 (NSC836407), SN-38 (NSC673596), topotecan (NSC609699), etoposide (NSC141540), doxorubicin (NSC123127), gemcitabine (NSC613327), 5-fluorouracil (NSC19893), paclitaxel (NSC125973), vemurafenib (NSC761431), panobinostat (NSC761190), R-306465 (JNJ-16241199; NSC773264), adavosertib (NSC754352), TP-3654 (NSC805149), carboplatin (NSC241240), KSQ-4279 (NSC840948), and staurosporine (NSC755774) were obtained from the National Cancer Institute (NCI) Developmental Therapeutics Program Chemical Repository (34). The FDA-approved anticancer drug set is available from the NCI Developmental Therapeutics Program. […] The stock solutions were prepared in dimethyl sulfoxide (DMSO, Sigma-Aldrich, St. Louis, MO, cat. D2650) at 800-fold the tested concentration and stored at -70 degrees C prior to their use. All drugs and investigational agents were tested over a range starting from a high concentration at or near the clinical Cmax and decreasing in half-log increments. If the clinical Cmax for an agent had not been determined, the highest concentration tested was 10 microM.
2.3 Cell Culture. All cells were maintained in an incubator at 37 degrees C and 5% CO2 with 95% humidity. The PDC lines were cultured according to standard operating procedures established by the NCI PDMR. All PDCs were thawed and cultured in Matrigel-coated flasks prepared with a working solution of 1X Ham's F-12 nutrient mix, without supplementation (Invitrogen, cat. 11765054), 100 U/mL penicillin-streptomycin (Invitrogen, cat. 15140122), and 2.5% Matrigel (Corning Inc., cat. 354248) for the first three passages. The 857933-349-R-J2-PDC line was cultured in 6C/Colon 1B media, which includes advanced DMEM/F-12 (Thermo Fisher Scientific, cat. 12634028), 10 mM HEPES (Thermo Fisher Scientific, cat. 15630080), 1X GlutaMAX supplement (Thermo Fisher Scientific, cat. 35050061), 0.1 mg/mL primocin (InvivoGen, cat. ant-pm-2), 10% defined fetal bovine serum, heat inactivated (HyClone Laboratories Inc., cat. SH30070.03HI), 50% L-WRN conditioned media (ATCC, cat. CRL-3276), 1.25 mM N-Acetyl-L-cysteine (Sigma-Aldrich, cat. A9165), 10 mM nicotinamide (Sigma-Aldrich, cat. N0636), 1X B-27 supplement (Thermo Fisher Scientific, cat. 17504044), 1X N-2 supplement (Thermo Fisher Scientific, cat. 17502048), 10 microM Y-27632 dihydrochloride (Tocris Bioscience, cat. 1254), and 50 ng/mL human EGF recombinant protein (Thermo Fisher Scientific, cat. PHG0311). The 485176-168-R4-J1-PDC line was cultured in Panc media, which includes all 6C/Colon 1B media components plus 100 ng/mL human FGF-10 (Thermo Fisher Scientific, cat. 100-26), 500 nM SB-431542 (Selleckchem, cat. S1067), and gastrin (Tocris, cat. 3006).
[…]

[1] = second compound 0.0316 µM, first compound 0.0316 µM
[2] = second compound 0.0316 µM, first compound 0.316 µM
[3] = second compound 0.1 µM, first compound 0.0316 µM
[4] = second compound 0.1 µM, first compound 0.316 µM
[5] = second compound 0.316 µM, first compound 0.0316 µM
[6] = second compound 0.316 µM, first compound 0.316 µM
[7] = second compound 1 µM, first compound 0.0316 µM
[8] = second compound 1 µM, first compound 0.316 µM
[9] = second compound 3.16 µM, first compound 0.0316 µM
[10] = second compound 3.16 µM, first compound 0.316 µM
[11] = second compound 10 µM, first compound 0.0316 µM
[12] = second compound 10 µM, first compound 0.316 µM
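Note: spheroids exposed to drugs for 7 days before viability reading.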

Cc1cccc(N(C)C(=O)C2C(O)CCN2c2nc(C)cc(C(F)(F)F)c2C#N)c1 (centres undefined) + CN(C)c1ccc(Nc2c3ccc(NC(=O)CCN4CCCC4)cc3nc3cc(NC(=O)CCN4CCCC4)ccc23)cc1
IC50 (second compound 0.0316 µM): > 10 µM | IC50 (second compound 0.1 µM): > 10 µM | IC50 (second compound 0.316 µM): > 10 µM | IC50 (second compound 1 µM): > 10 µM | IC50 (second compound 3.16 µM): > 10 µM | IC50 (second compound 10 µM): > 10 µM | viability, T/C [1]: 108% | viability, T/C (second compound 0.0316 µM, first compound 0.1 µM): 99% | viability, T/C [2]: 89.8% | viability, T/C (second compound 0.0316 µM, first compound 1 µM): 94.1% | viability, T/C (second compound 0.0316 µM, first compound 3.16 µM): 101% | viability, T/C (second compound 0.0316 µM, first compound 10 µM): 101% | viability, T/C [3]: 118% | viability, T/C (second compound 0.1 µM, first compound 0.1 µM): 95.7% | viability, T/C [4]: 91.6% | viability, T/C (second compound 0.1 µM, first compound 1 µM): 109% | viability, T/C (second compound 0.1 µM, first compound 3.16 µM): 95.5% | viability, T/C (second compound 0.1 µM, first compound 10 µM): 109% | viability, T/C [5]: 102% | viability, T/C (second compound 0.316 µM, first compound 0.1 µM): 102% | viability, T/C [6]: 100% | viability, T/C (second compound 0.316 µM, first compound 1 µM): 115% | viability, T/C (second compound 0.316 µM, first compound 3.16 µM): 113% | viability, T/C (second compound 0.316 µM, first compound 10 µM): 102% | viability, T/C [7]: 90.6% | viability, T/C (second compound 1 µM, first compound 0.1 µM): 103% | viability, T/C [8]: 105% | viability, T/C (second compound 1 µM, first compound 1 µM): 105% | viability, T/C (second compound 1 µM, first compound 3.16 µM): 97.6% | viability, T/C (second compound 1 µM, first compound 10 µM): 88% | viability, T/C [9]: 88% | viability, T/C (second compound 3.16 µM, first compound 0.1 µM): 98.1% | viability, T/C [10]: 95.8% | viability, T/C (second compound 3.16 µM, first compound 1 µM): 91% | viability, T/C (second compound 3.16 µM, first compound 3.16 µM): 85.9% | viability, T/C (second compound 3.16 µM, first compound 10 µM): 87.7% | viability, T/C [11]: 62.7% | viability, T/C (second compound 10 µM, first compound 0.1 µM): 63.6% | viability, T/C [12]: 72.9% | viability, T/C (second compound 10 µM, first compound 1 µM): 63.7% | viability, T/C (second compound 10 µM, first compound 3.16 µM): 58.8% | viability, T/C (second compound 10 µM, first compound 10 µM): 47.8%

Cn1ncnc1[C@H]1c2n[nH]c(=O)c3cc(F)cc(c23)N[C@@H]1c1ccc(F)cc1 + CN(C)c1ccc(Nc2c3ccc(NC(=O)CCN4CCCC4)cc3nc3cc(NC(=O)CCN4CCCC4)ccc23)cc1
IC50 (second compound 0.0316 µM): > 0.316 µM | IC50 (second compound 0.1 µM): > 0.316 µM | IC50 (second compound 0.316 µM): > 0.316 µM | IC50 (second compound 1 µM): > 0.316 µM | IC50 (second compound 3.16 µM): > 0.316 µM | IC50 (second compound 10 µM): > 0.316 µM | viability, T/C (second compound 0.0316 µM, first compound 0.000999 µM): 106% | viability, T/C (second compound 0.0316 µM, first compound 0.00316 µM): 89.4% | viability, T/C (second compound 0.0316 µM, first compound 0.00999 µM): 90.6% | viability, T/C [1]: 84.8% | viability, T/C (second compound 0.0316 µM, first compound 0.0999 µM): 99.6% | viability, T/C [2]: 80.5% | viability, T/C (second compound 0.1 µM, first compound 0.000999 µM): 98.4% | viability, T/C (second compound 0.1 µM, first compound 0.00316 µM): 92.1% | viability, T/C (second compound 0.1 µM, first compound 0.00999 µM): 96.6% | viability, T/C [3]: 94.7% | viability, T/C (second compound 0.1 µM, first compound 0.0999 µM): 86.6% | viability, T/C [4]: 93.5% | viability, T/C (second compound 0.316 µM, first compound 0.000999 µM): 104% | viability, T/C (second compound 0.316 µM, first compound 0.00316 µM): 97.9% | viability, T/C (second compound 0.316 µM, first compound 0.00999 µM): 102% | viability, T/C [5]: 94.6% | viability, T/C (second compound 0.316 µM, first compound 0.0999 µM): 83.4% | viability, T/C [6]: 80% | viability, T/C (second compound 1 µM, first compound 0.000999 µM): 92.4% | viability, T/C (second compound 1 µM, first compound 0.00316 µM): 89.5% | viability, T/C (second compound 1 µM, first compound 0.00999 µM): 99.8% | viability, T/C [7]: 85.1% | viability, T/C (second compound 1 µM, first compound 0.0999 µM): 95% | viability, T/C [8]: 76.1% | viability, T/C (second compound 3.16 µM, first compound 0.000999 µM): 94% | viability, T/C (second compound 3.16 µM, first compound 0.00316 µM): 97% | viability, T/C (second compound 3.16 µM, first compound 0.00999 µM): 98.4% | viability, T/C [9]: 85.5% | viability, T/C (second compound 3.16 µM, first compound 0.0999 µM): 92.6% | viability, T/C [10]: 80.8% | viability, T/C (second compound 10 µM, first compound 0.000999 µM): 70.1% | viability, T/C (second compound 10 µM, first compound 0.00316 µM): 58.9% | viability, T/C (second compound 10 µM, first compound 0.00999 µM): 67.3% | viability, T/C [11]: 64.9% | viability, T/C (second compound 10 µM, first compound 0.0999 µM): 61.5% | viability, T/C [12]: 60.2%

Reference: PubChem BioAssay AID2060500 (Molecular Pharmacology Branch, DTP, NCI, 2025)
